Source: paper PMC12332266 (Frontiers in Pharmacology, 2025)
Read-outs that look alike come from different tables or passages of the source. Each block holds one molecule with its values, some of them ahead of it.

Assays:
[1] = tested on: hiPSC-CM (iCell Cardiomyocytes^2); test: RTCA CardioECR assessment (impedance and electrophysiology parameters)
Outline: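 iCell^2 cardiomyocytes on fibronectin-coated ePlates monitored continuously by impedance for cell index, beating rate and amplitude. Field potential duration and spike amplitude were recorded from day 4–6 after monolayer formation. Data were double-normalized to DMSO control and baseline, with variability given as SD.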

[2] = tested on: hiPSC-CM (iCell Cardiomyocytes^2); test: Intracellular miRNA expression by RT-qPCR in hiPSC-CM pellets after 72-hour treatment; details: for hsa-miR-7-5p fold change, intracellular / hsa-miR-96-5p fold change, intracellular / hsa-miR-126-3p fold change, intracellular / hsa-miR-133b fold change, intracellular / hsa-miR-146b-5p fold change, intracellular / hsa-miR-182-5p fold change, intracellular / hsa-miR-185-3p fold change, intracellular / hsa-miR-187-3p fold change, intracellular / hsa-miR-208b-3p fold change, intracellular / hsa-miR-365a-5p fold change, intracellular / hsa-miR-[…] change, intracellular / hsa-miR-29a-5p fold change, intracellular: 72 h
Outline: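 After 72-hour treatment and RTCA CardioECR assessment, total RNA from hiPSC-CM pellets was reverse transcribed, pre-amplified and quantified by TaqMan RT-qPCR against a 17-miRNA panel. Triplicates were pooled, so no statistical analysis was performed.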

[3] = ref extensive literature search, cited from earlier work

Cell index (CI) MEC ([1]; hiPSC-CM, 72-hour treatment, lowest concentration causing at least 20% change from baseline): 1 µM | RTCA, MEC (CI) ([1]; hiPSC-CM, change ≥20%, Table 2): 1 µM | Beating Rate MEC ([1]; human, 72 h): 0.3 µM | Beating rate (BR) MEC ([1]; human, 72 h): 0.3 µM | Cell Index MEC ([1]; human, 72 h): 1 µM | Contractility Amplitude MEC ([1]; human, 72 h): 10 µM | RTCA, MEC (BR) ([1]; human, 72 h): 0.3 µM | Spike Amplitude (SA) MEC ([1]; human, 72 h): 0.3 µM | miRNAs hiPSC-CM pellet, MEC overall [2]: 0.3 µM | hsa-miR-7-5p fold change, intracellular ([2]; 0.3 µM): 1.4 | hsa-miR-96-5p fold change, intracellular ([2]; 0.3 µM): 9.0 | hsa-miR-126-3p fold change, intracellular ([2]; 0.3 µM): 1.6 | hsa-miR-133b fold change, intracellular ([2]; 0.3 µM): 2.7 | hsa-miR-146b-5p fold change, intracellular ([2]; 0.3 µM): 0.8 | hsa-miR-182-5p fold change, intracellular ([2]; 0.3 µM): 2.5 | hsa-miR-185-3p fold change, intracellular ([2]; 0.3 µM): 6.4 | hsa-miR-187-3p fold change, intracellular ([2]; 0.3 µM): 1.7 | hsa-miR-208b-3p fold change, intracellular ([2]; 0.3 µM): 1.2 | hsa-miR-365a-5p fold change, intracellular ([2]; 0.3 µM): 5.4 | hsa-miR-[…] change, intracellular ([2]; 0.3 µM): 0.8 | hsa-miR-7-5p fold change, intracellular ([2]; 1 µM): 0.8 | hsa-miR-29a-5p fold change, intracellular ([2]; 1 µM): 3.6 | hsa-miR-96-5p fold change, intracellular ([2]; 1 µM): 4.7 | hsa-miR-126-3p fold change, intracellular ([2]; 1 µM): 2.1 | hsa-miR-133b fold change, intracellular ([2]; 1 µM): 1.6 | hsa-miR-146b-5p fold change, intracellular ([2]; 1 µM): 0.9 | hsa-miR-182-5p fold change, intracellular ([2]; 1 µM): 0.9 | hsa-miR-185-3p fold change, intracellular ([2]; 1 µM): 1.5 | hsa-miR-187-3p fold change, intracellular ([2]; 1 µM): 0.5 | hsa-miR-208b-3p fold change, intracellular ([2]; 1 µM): 1.2 | hsa-miR-365a-5p fold change, intracellular ([2]; 1 µM): 0.8 | hsa-miR-[…] change, intracellular ([2]; 1 µM): 0.8 | hsa-miR-7-5p fold change, intracellular ([2]; 3 µM): 0.9 | hsa-miR-29a-5p fold change, intracellular ([2]; 3 µM): 4.0 | hsa-miR-126-3p fold change, intracellular ([2]; 3 µM): 1.1 | hsa-miR-133b fold change, intracellular ([2]; 3 µM): 3.3 | hsa-miR-146b-5p fold change, intracellular ([2]; 3 µM): 6.4 | hsa-miR-182-5p fold change, intracellular ([2]; 3 µM): 0.8 | hsa-miR-185-3p fold change, intracellular ([2]; 3 µM): 7.9 | hsa-miR-187-3p fold change, intracellular ([2]; 3 µM): 1.4 | hsa-miR-208b-3p fold change, intracellular ([2]; 3 µM): 1.2 | hsa-miR-365a-5p fold change, intracellular ([2]; 3 µM): 0.7 | hsa-miR-[…] change, intracellular ([2]; 3 µM): 0.8 | hsa-miR-7-5p fold change, intracellular ([2]; 10 µM): 0.5 | hsa-miR-29a-5p fold change, intracellular ([2]; 10 µM): 7.4 | hsa-miR-96-5p fold change, intracellular ([2]; 10 µM): 0.5 | hsa-miR-126-3p fold change, intracellular ([2]; 10 µM): 1.8 | hsa-miR-133b fold change, intracellular ([2]; 10 µM): 1.1 | hsa-miR-146b-5p fold change, intracellular ([2]; 10 µM): 0.4 | hsa-miR-182-5p fold change, intracellular ([2]; 10 µM): 0.4 | hsa-miR-185-3p fold change, intracellular ([2]; 10 µM): 3.3 | hsa-miR-187-3p fold change, intracellular ([2]; 10 µM): 0.6 | hsa-miR-208b-3p fold change, intracellular ([2]; 10 µM): 1.6 | hsa-miR-365a-5p fold change, intracellular ([2]; 10 µM): 3.9 | hsa-miR-[…] change, intracellular ([2]; 10 µM): 0.7
Structure (SMILES): Cc1nc(Nc2ncc(C(=O)Nc3c(C)cccc3Cl)s2)cc(N2CCN(CCO)CC2)n1 [Dasatinib]
miRNAs upregulated at the MEC overall (hiPSC-CM pellet) [2]: miR-96-5p, miR-133b, miR-182-5p, miR-185-3p, miR-365a-5p | Cmax total ([3]; Supplementary Table 1): 970 nM | Cmax total ([3]; Table 1): 970 nM

Beating Rate MEC ([1]; human, 72 h): 3 µM | Beating rate (BR) MEC ([1]; human, 72 h): 3 µM | Contractility Amplitude MEC ([1]; human, 72 h): 0.1 µM | Field Potential Duration MEC ([1]; human, 72 h): 1 µM | RTCA, MEC (BR) ([1]; human, 72 h): 3 µM (CI, BR) | RTCA, MEC (CI) ([1]; human, 72 h): 3 µM (CI, BR) | Spike Amplitude (SA) MEC ([1]; human, 72 h): 0.1 µM | miRNAs hiPSC-CM pellet, MEC overall [2]: 0.1 µM | miRNAs upregulated at the MEC overall (hiPSC-CM pellet) [2]: miR-126-3p, miR-146b-5p, miR-208b-3p
Structure (SMILES): N=C(N)c1ccc(OCCCCCOc2ccc(C(=N)N)cc2)cc1 [Pentamidine]
Cmax total ([3]; Supplementary Table 1): 1800 nM | Cmax total ([3]; Table 1): 1800 nM
